The values that follow come from US9255063B2, “Colchicine solid-state forms; methods of making; and methods of use thereof” (Takeda Pharmaceuticals U.S.A., Inc., priority 2008, dated 2016).

The conditions of data set [1]: TG-FTIR, N2 atmosphere, heating rate 10 K/min, range 25° C. to 350° C.
The conditions of data set [2]: 81% RH; nitrogen; 38 days. Here is the method:
Five techniques are used to find colchicine solid forms: 1) suspension equilibration, 2) precipitation 3) drying and water vapor adsorption, 4) evaporation, and 5) melt quench. Suspension equilibration generally is carried out by slurrying the colchicine in a solvent system, optionally including an antisolvent. Precipitation generally is carried out by adding an antisolvent to a solution of colchicine. Evaporation technique is generally carried out by allowing the solvent of a solution of colchicine to evaporate to induce crystallization of the colchicine. Water vapor adsorption technique generally involves exposing colchicine to a controlled humid environment so that the material takes up water. The drying experiments can be performed under inert atmospheres (e.g., nitrogen). Melt quench generally involves fast cooling a melt to form a solid.

As for `COc1cc2c(c(OC)c1OC)-c1ccc(OC)c(=O)cc1[C@@H](NC(C)=O)CC2` [Form E], in data set [1], the “Decomposition is observed above (temperature)” value is “above 250 °C”.
On the same count and under the same terms, to `COc1cc2c(c(OC)c1OC)-c1ccc(OC)c(=O)cc1[C@@H](NC(C)=O)CC2` [Form F] belongs “above 280 °C”.
With `COc1cc2c(c(OC)c1OC)-c1ccc(OC)c(=O)cc1[C@@H](NC(C)=O)CC2` [Form A, (−)-N-[(7S,12aS)-1,2,3,10-tetramethoxy-9-oxo-5,6,7,9-tetrahydrobenzo[a]heptalen-7-yl]-acetamide], in data set [2], the “Ethyl acetate content after water vapor adsorption” value is given as 2% ethyl and the “Water content after water vapor adsorption” value was 4% water and. Besides, in data set [1], the “Decomposition is observed above (temperature)” value was “above 275 °C”.
